# Data reported in patent publication US8790678B2, “Biomaterials having nanoscale layers and coatings” (Washington University, priority 2006, dated 2014).
# Bridges are numbered along the chain shown (N, C = ends). Where no end group is shown, it is not given here.
# What was measured:
# [1] = Hydrogel mesh size by modified SDS-PAGE gel; assay type: physicochemical; conditions: PEG-OVS/albumin layer in SDS-PAGE gel
# Protocol: The mesh size of PEG-OVS/albumin hydrogels was investigated using a modified SDS-PAGE gel to characterize the migration of albumin through the PEG hydrogels. A 15% acrylamide gel was formed at the bottom of the casting chamber, with a spacer to form a well on the left side of the gel. After the acrylamide solidified, the PEG-OVS/albumin precursor solution was pipetted into the formed well. The casting stand was placed in a humidified 37° C. incubator for 24 h to crosslink the PEG gel. A 7% acrylamide gel was formed over the polymerized gels, followed by a stacking gel. A solution of bovine serum albumin (BSA) was loaded into the wells of the gel, which was run under standard conditions. The gel was stained with Coomassie Blue.
# [2] = tested on: Human aortic endothelial cells; assay: Single cell tracking on RGD/PEG-OVS/albumin hydrogels under fluid shear stress; assay type: cell-based; conditions: for loss of cells from the hydrogel: highest RGD concentration, over 12 h
# Protocol: Human aortic endothelial cells seeded onto RGD/PEG-OVS/albumin hydrogels at 1000-2000 cells/cm^2 were tracked under 20 dynes/cm^2 fluid shear stress in HEPES-buffered low serum medium (HEPES-LSM; MCDB 131 with 0.1% FBS, 1% ABAM, […] HEPES, pH 7.4) containing 0.4% FAF-BSA for 12 h.
# Time lapse microscopy images were obtained every 2 min for 12 h of endothelial cell migration on the surface of RGD containing PEG hydrogels. The percent of cells remaining on the gels during the course of the experiment was recorded for each RGD concentration. The projected cell areas of all cells were determined by manually outlining the cells after 3 h under 20 dyne/cm^2 shear stress. Single endothelial cells were manually tracked for 12 h to obtain XY-coordinate data for the center of each cell. Coordinate data from every six minutes (Δt=6 min) for all cells in each experiment were saved as variables for analysis in MATLAB (The MathWorks, Natick, Mass.). At each time point i, ti=iΔt, the mean squared displacement was calculated using the overlapping interval method. The speed of each individual was calculated by dividing the root mean-square displacement for a single time interval by the tracking interval (6 min). Each cell's persistence time was determined by fitting the persistent random walk model given by Equation 1: <d^2(t)>=2S^2P[t−P(1−e^−t/P)] [1] using the calculated speed by nonlinear least squares regression analysis as previously described (Dunn 1983; Othmer, Dunbar and Alt 1988; Harms et al. 2005). Speed simply represents the total path length of a cell over time. Persistence time represents the time period between changes in the direction of movement of more than 60°. Path length is calculated as the product of speed and persistence time. Cell dispersion is the product of speed squared and persistence time. Cell areas were obtained by manually tracing cells. All data was analyzed by ANOVA Scheffe post hoc. Endothelial Response to Linear RGD Concentration—Cell Attachment Strength
# [3] = tested on: Human Umbilical Vein Endothelial Cells (HUVEC); assay: Cell adhesion assay on layer-by-layer PEG hydrogel coatings; assay type: cell-based; conditions: RGD peptide attached to PEG-VS/PEG-diamine hydrogel; medium containing serum proteins
# Protocol: Hydrogels were formed layer-by-layer by conjugate addition reactions between PEG-VS and PEG-diamine. First, the surface of the substrate was activated to create reactive amine groups. Clean glass coverslips were incubated in 2% 3-aminopropyltriethoxysilane in dry acetone solution for one hour with gentle shaking. The aminophase coverslips were then cured at 100° C. for a 3 h, and stored in a clean Petri dish until use. The activated substrates were incubated with a solution containing 1% eight-arm PEG-VS overnight at pH 8.5 and 37° C. The substrates were subsequently incubated with a solution of 1% PEG-diamine (mol. wt. 3400, Shearwater Polymers) for 1 h at 37° C. This two-step process was repeated to create multiple layers (one layer comprises PEG-VS+PEG-diamine). Between incubations with PEG-VS or PEG-diamine, the surfaces were washed six times with PBS. After the formation of five layers, the substrates were incubated with PEG-VS for 1 h at 37° C. […]
# The RGD peptide acetyl-GCGYGRGDSPG [SEQ ID NO. […] The peptide was purified by C18 chromatography and analyzed by MALDI-TOF mass spectrometry. […]
# Human Umbilical Vein Endothelial Cells (HUVEC, Clonetics) were grown in endothelial cell growth medium (EGM, Clonetics) on tissue culture polystyrene at 37° C. and 5% CO2. […] Cells on the surfaces were imaged by phase contrast microscopy and the number of cells was counted manually.
# HAEC = assay: Centrifugation assay of cell adhesion strength on RGD hydrogels; assay type: cell-based, human; conditions: range as RGD concentration in PEG-OVS/albumin hydrogel was increased; 6 h adhesion
# Protocol: Cell adhesion strengths to the RGD containing hydrogel surfaces were assessed using a centrifugation assay to apply controlled detachment forces. PEG hydrogels (75 μL) of various concentrations of RGD were formed on the bottom of a 48-well non-treated culture plate. Following crosslinking for 24 h, HAEC were seeded onto the gels at 10,000 cells/cm^2 in 500 μL EGM. After 6 h to allow the cells to attach and spread, the gels were washed with DPBS. The wells were filled with DPBS to the top of the wells and then covered with adhesive sealing tape. Images were obtained at 4× to quantify the number of cells initially attached to the hydrogel. […] The percent of cells remaining on the hydrogel was quantified. […]
# The effects of changing the linear RGD concentration on the initial adhesion strength of endothelial cells to PEG-OVS/albumin hydrogels were examined. […] Cell adhesion strengths were assessed by centrifugation of inverted, sealed plates containing hydrogels polymerized in the bottoms of wells. The percent of cells remaining adhered to the hydrogels after centrifugation for 5 min was measured for various forces of detachment on each concentration of linear RGD. […]
# The initial adhesion strength of endothelial cells to the PEG hydrogels containing cyclic RGD peptide was measured after 6 hours to allow for endothelial cell adhesion. […]
# D-erythro-sphingosine = assay: Activity of GST-tagged sphingosine kinase by TLC; assay type: biochemical, human; conditions: 10 μg/mL protein, 50 μM D-erythro-sphingosine
# Source text: Hydrogels were formed with the enzyme sphingosine kinase to produce S1P in the materials from a precursor (sphingosine) naturally present in the blood. Human sphingosine kinase was cloned by RT-PCR from human umbilical vein endothelial cell mRNA. The PCR insert with the correct sequence was transferred from the cloning vector to the expression vector, pGEX-6P-1, using the restriction enzymes EcoRI and XhoI, to create an N-terminal GST-tagged sphingosine kinase [SEQ ID NO. 1]. The plasmid with the correct sequence was transfected into BL21 E. coli and the cells were grown to OD600 0.6 in LB medium. Protein expression was induced with 1 mM IPTG. After 3 h, the cells were harvested by centrifugation for 20 min at 6000 g, 4° C. The cells were lysed with lysozyme and sonication. The lysate was centrifuged at 50,000 g for 45 min at 4° C. and the supernatant was filtered. The GST-containing protein was purified using GSTrap FF columns. Activity of the protein (10 μg/mL) was assessed by incubation with 50 μM D-erythro-sphingosine and […] in 0.1% BSA in PBS for 0-30 min, followed by dilution 1:1 with methanol and acidification to pH 1 with HCl. Lipids were extracted into chloroform and analyzed by thin layer chromatography on silica plates with butanol-acetic acid-water 6:2:2, with detection by ninhydrin. There was complete conversion to sphingosine 1-phosphate within 30 min.
# [4] = tested on: chorioallantoic membrane (CAM); assay: Chick chorioallantoic membrane (CAM) angiogenesis assay; assay type: in vivo, chicken; conditions: 50 ng spotted on Thermanox coverslip, two days
# Protocol: Embryonated chicken eggs were incubated blunt-end up in a 37° C. incubator. At embryonal day 6, the top of the egg was cracked and removed using tweezers to create a 1.5 cm diameter opening. The inner shell membrane was removed, exposing the CAM. A 20 μL PEG hydrogel was then placed onto the CAM. As controls, 50 ng bFGF or 50 ng S1P were spotted onto small pieces of Thermanox coverslips (Nunc), air dried and placed onto the CAM. The eggs were sealed with parafilm and returned to the incubator. After two days of incubation, the eggs were reopened and the degree of angiogenesis was visually assessed.
# [5] = Sulforhodamine B release from preloaded hydrogels; assay type: physicochemical; conditions: 500 nmol preloaded, 554 nm
# Protocol: The effect of gel mesh size on the diffusion of small molecules was tested using a water-soluble dye molecule, sulforhodamine B. Sulforhodamine B (500 nmol) was preloaded into gels formed with PEG-OVS crosslinked with albumin, PEG-diamine, or DTT. The gels were incubated win PBS and the release of sulforhodamine B was detected by visible light spectroscopy at 554 nm over time. The molecular weight of sulforhodamine is 580.7, compared to 379.5 for S1P, and the diffusivity of the dye would be expected to be lower than that of S1P. Using the Wilke-Chang correlation, we calculated a diffusion coefficient of 3.42×10^−6 cm^2/sec for sulforhodamine and 4.15×10^−6 cm^2/sec for S1P, both at 37° C.
compound,measurement,setting,value
Albumin: bovine serum albumin loaded on the SDS-PAGE gel,migration of protein through the PEG hydrogel,[1],hindered
"acetyl-GCGYGRGDSPG (Ac-GCGYGRGDSPG; not fully specified (C-terminus); printed as acetyl-GCGYGRGDSPG) [linear RGD, cell adhesion-promoting peptide]",loss of cells from the hydrogel,[2]; 20 dyne/cm^2,less than 5%
same,RGD concentration of maximum dispersion,[2]; without S1P,4.12 mM
same,RGD concentration of maximum path length,[2]; without S1P,4.12 mM
same,RGD concentration of maximum cell speed,"[2]; without S1P, 20 dynes/cm^2",4.12 mM
same,HUVEC adhesion to multilayered PEG hydrogel,[3],restored HUVEC adhesion
same,detachment force required to remove 50% of the cells (F50),HAEC,850-1120 pN
N-terminal GST-tagged sphingosine kinase: human sphingosine kinase cloned from HUVEC mRNA with N-terminal GST tag,time to complete conversion to sphingosine 1-phosphate,D-erythro-sphingosine,≤ 30 min
bFGF: control angiogenic factor in CAM assay,angiogenic response,[4],strong angiogenic responses
aprotinin,migration of protein through the PEG hydrogel,[1],freely passed through
CCN(CC)c1ccc2c(-c3ccc(S(=O)(=O)O)cc3S(=O)(=O)[O-])c3ccc(=[N+](CC)CC)cc-3oc2c1 [sulforhodamine B],time to near complete release of dye into PBS,[5],~6 h
lysozyme: molecular weight marker (14.4 kDa),migration of protein through the PEG hydrogel,[1],freely passed through
"Ac-GCNAC*RGDGWC*G (Ac-GCNACRGDGWCG; disulfide 5-11) [cyclic RGD, cyclic RGD peptide cyclized by disulphide formation]",cell migration speed relative to cells without RGD,"[2]; 0.69 mM cyclic RGD, 100 nM S1P",more than twice
same,migration speed greater than the highest speed on linear RGD with 100 nM S1P,"[2]; 0.69 mM cyclic RGD, 100 nM S1P",44%
same,loss of cells from the hydrogel,[2]; 20 dyne/cm^2,about 20%
same,RGD concentration of peak migration speed,"[2]; with 100 nM S1P, 20 dyne/cm^2",0.69 mM
